# Key:
# Assay type in all cases: functional
# Escherichia coli = assay: Antibacterial activity against Escherichia coli DSM 30083 after 16 hrs by microdilution assay; settings: DSM 30083 = JCM 1649 = ATCC 11775, 16 h
# Bacillus subtilis = assay: Antibacterial activity against Bacillus subtilis 168 after 16 hrs by microdilution assay; settings: subsp. subtilis str. 168, 16 h
# Staphylococcus aureus [1] = assay: Antibacterial activity against methicillin-resistant Staphylococcus aureus ATCC 43300 after 16 hrs by microdilution assay; settings: ATCC 43300, 16 h
# Acinetobacter baumannii = assay: Antibacterial activity against Acinetobacter baumannii DSM 30007 after 16 hrs by microdilution assay; settings: DSM 30007, 16 h
# Staphylococcus aureus [2] = assay: Antibacterial activity against Staphylococcus aureus DSM 20231 after 16 hrs by microdilution assay; settings: DSM 20231, 16 h
Molecule,MIC (Escherichia coli) [µM],MIC (Bacillus subtilis) [µM],MIC (Staphylococcus aureus [1]) [µM],MIC (Acinetobacter baumannii) [µM],MIC (Staphylococcus aureus [2]) [µM]
CCc1c(Cn2cc(CN[C@H](Cc3c[nH]c4ccccc34)C(=O)N[C@@H](CCCNC(=N)N)C(=O)N[C@H](Cc3c[nH]c4ccccc34)C(=O)O)nn2)c(CC)c(Cn2cc(CN[C@H](Cc3c[nH]c4ccccc34)C(=O)N[C@@H](CCCNC(=N)N)C(=O)N[C@H](Cc3c[nH]c4ccccc34)C(=O)O)nn2)c(CC)c1Cn1cc(CN[C@H](Cc2c[nH]c3ccccc23)C(=O)N[C@@H](CCCNC(=N)N)C(=O)N[C@H](Cc2c[nH]c3ccccc23)C(=O)O)nn1 (stereo in doubt),16,1,2,32,4
CCc1c(Cn2cc(CN[C@@H](CCCNC(=N)N)C(=O)N[C@@H](Cc3c[nH]c4ccccc34)C(=O)O)nn2)c(CC)c(Cn2cc(CN[C@@H](CCCNC(=N)N)C(=O)N[C@@H](Cc3c[nH]c4ccccc34)C(=O)O)nn2)c(CC)c1Cn1cc(CN[C@@H](CCCNC(=N)N)C(=O)N[C@@H](Cc2c[nH]c3ccccc23)C(=O)O)nn1,60,1.8,7.3,15,7.3
N=C(N)NCCC[C@H](NCc1cn(Cc2cc(Cn3cc(CN[C@@H](CCCNC(=N)N)C(=O)N[C@@H](Cc4c[nH]c5ccccc45)C(=O)O)nn3)cc(Cn3cc(CN[C@@H](CCCNC(=N)N)C(=O)N[C@@H](Cc4c[nH]c5ccccc45)C(=O)O)nn3)c2)nn1)C(=O)N[C@@H](Cc1c[nH]c2ccccc12)C(=O)O,60,3.8,15,30,30
O=C(O)c1cn(C2CC2)c2cc(N3CCNCC3)c(F)cc2c1=O [CIPROFLOXACIN],1.5,24,12,24,12
N=C(N)NCCC[C@H](NC(=O)[C@H](Cc1c[nH]c2ccccc12)NC(=O)[C@H](CCCNC(=N)N)NCc1cn(Cc2cc(Cn3cc(CN[C@@H](CCCNC(=N)N)C(=O)N[C@@H](Cc4c[nH]c5ccccc45)C(=O)N[C@@H](CCCNC(=N)N)C(=O)O)nn3)cc(Cn3cc(CN[C@@H](CCCNC(=N)N)C(=O)N[C@@H](Cc4c[nH]c5ccccc45)C(=O)N[C@@H](CCCNC(=N)N)C(=O)O)nn3)c2)nn1)C(=O)O,13,6,13,54,27
CCc1c(Cn2cc(CN[C@@H](Cc3c[nH]c4ccccc34)C(=O)N[C@@H](CCCNC(=N)N)C(=O)O)nn2)c(CC)c(Cn2cc(CN[C@@H](Cc3c[nH]c4ccccc34)C(=O)N[C@@H](CCCNC(=N)N)C(=O)O)nn2)c(CC)c1Cn1cc(CN[C@@H](Cc2c[nH]c3ccccc23)C(=O)N[C@@H](CCCNC(=N)N)C(=O)O)nn1,15,2.2,7.3,15,15
N=C(N)NCCC[C@H](NC(=O)[C@@H](Cc1c[nH]c2ccccc12)NCc1cn(Cc2cc(Cn3cc(CN[C@H](Cc4c[nH]c5ccccc45)C(=O)N[C@@H](CCCNC(=N)N)C(=O)N[C@H](Cc4c[nH]c5ccccc45)C(=O)O)nn3)cc(Cn3cc(CN[C@H](Cc4c[nH]c5ccccc45)C(=O)N[C@@H](CCCNC(=N)N)C(=O)N[C@H](Cc4c[nH]c5ccccc45)C(=O)O)nn3)c2)nn1)C(=O)N[C@H](Cc1c[nH]c2ccccc12)C(=O)O (stereo in doubt),12,3,12,> 100,> 100
N=C(N)NCCC[C@H](NC(=O)[C@H](Cc1c[nH]c2ccccc12)NCc1cn(Cc2cc(Cn3cc(CN[C@@H](Cc4c[nH]c5ccccc45)C(=O)N[C@@H](CCCNC(=N)N)C(=O)O)nn3)cc(Cn3cc(CN[C@@H](Cc4c[nH]c5ccccc45)C(=O)N[C@@H](CCCNC(=N)N)C(=O)O)nn3)c2)nn1)C(=O)O,60,7.6,15,60,30
H-RWRWRW-NH2,21,1.3,5.3,21,11
CCc1c(Cn2cc(CN[C@@H](CCCNC(=N)N)C(=O)N[C@@H](Cc3c[nH]c4ccccc34)C(=O)N[C@@H](CCCNC(=N)N)C(=O)O)nn2)c(CC)c(Cn2cc(CN[C@@H](CCCNC(=N)N)C(=O)N[C@@H](Cc3c[nH]c4ccccc34)C(=O)N[C@@H](CCCNC(=N)N)C(=O)O)nn2)c(CC)c1Cn1cc(CN[C@@H](CCCNC(=N)N)C(=O)N[C@@H](Cc2c[nH]c3ccccc23)C(=O)N[C@@H](CCCNC(=N)N)C(=O)O)nn1,13,3,13,26,13
N=C(N)NCCC[C@H](NC(=O)[C@H](Cc1c[nH]c2ccccc12)NC(=O)[C@@H](N)CCCNC(=N)N)C(=O)NCc1cn(Cc2ccccc2)nn1,> 100,35,70,> 100,> 100

# — ChEMBL document CHEMBL3734734, “Synthesis and antibacterial activity of trivalent ultrashort Arg-Trp-based antimicrobial peptides (AMPs)” (2015)
